Assay results published in US9593149B2, “Amylin and calcitonin receptor agonist” (Novo Nordisk A/S, priority 2014, dated 2017).
Converted amounts (≈) assume the structure as drawn. Numbered stars: 1 amine (or outer) side, 2 acyl side, 3 side chain; on linkers, the order of the positions; unused ones are H or OH. Peptide text beside a SMILES is read from it. * marks the point of attachment. C20 diacid = O=C(O)CCCCCCCCCCCCCCCCCCC(=O)*; C18 diacid = O=C(O)CCCCCCCCCCCCCCCCC(=O)*; γGlu = O=C(O)[C@H](CCC(=O)[*:2])N[*:1]

Legend:
[1] = Assay (IV) determination of solubility; type: physicochemical
Protocol: Assay (IV)—Determination of Solubility
The mimylin peptide was dissolved in water at ˜500 nmol/ml and mixed 1:1 with a series of buffers (100 mM glycylglycine pH 3.0, 100 mM glycylglycine pH 4.0, 100 mM glycylglycine pH 5.0, 100 mM bistrispropane pH 6.0, 100 mM bistrispropane pH 6.5, 100 mM bistrispropane pH 7.0, 100 mM bistrispropane pH 7.5, 100 mM bistrispropane pH 8.0).

rat calcitonin receptor = molecular target: T1, rat calcitonin receptor (Rattus norvegicus, UniProt P32214); experiment: Assay (VIII) binding to the rat calcitonin receptor; settings: membranes; read-out: rCT-R binding IC50
T1 construct: expressed in transfected cells; host or cells: BHK tk'ts 13 (transient, FuGENE 6)
T1 sequence (P32214 25-479 isoform P32214-2 limits assumed): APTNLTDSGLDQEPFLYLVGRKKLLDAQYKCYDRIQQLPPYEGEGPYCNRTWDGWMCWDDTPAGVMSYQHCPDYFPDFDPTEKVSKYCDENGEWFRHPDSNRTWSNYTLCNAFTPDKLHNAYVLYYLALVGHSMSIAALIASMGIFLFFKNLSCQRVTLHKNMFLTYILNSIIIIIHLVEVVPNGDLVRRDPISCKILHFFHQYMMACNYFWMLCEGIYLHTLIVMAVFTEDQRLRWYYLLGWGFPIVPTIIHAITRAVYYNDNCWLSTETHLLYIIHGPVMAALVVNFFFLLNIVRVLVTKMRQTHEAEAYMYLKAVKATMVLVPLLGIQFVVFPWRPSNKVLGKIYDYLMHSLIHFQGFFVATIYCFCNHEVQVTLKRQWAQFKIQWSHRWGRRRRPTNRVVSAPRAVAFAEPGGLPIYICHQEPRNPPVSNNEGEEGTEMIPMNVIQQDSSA
In short: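 Competition binding on membranes from BHK tk'ts 13 cells transiently transfected with rat calcitonin receptor, otherwise run as the human receptor assay. Plates washed in cold HBSS, lysed in 0.1 M NaOH/1% SDS and scintillation-counted. IC50 from one-site competition fit as affinity measure.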

[2] = Assay (IX) pK, T½ in mini-pig; type: in vivo, Göttingen mini-pigs; settings: i.v.
Protocol: Assay (IX)—pK—Determination of T½ in Mini-Pig
Pharmacokinetic (PK) studies in Göttingen mini-pigs were conducted in order to determine the T½ of the mimylin compound according to the Examples as indicated after i.v. administration.
T½ values of the amylin analogues of the invention is determined by pharmacokinetic studies in female Göttingen mini-pigs from Ellegaard Göttingen Minipigs ApS and the principles of laboratory animal care are followed.
An acclimatisation period of approximately 6-10 days was allowed before the animals entered the study. At start of the acclimatisation period the mini-pigs were about 5 to 12 months old and in the weight range of 15-35 kg. The mini-pigs had two central venous catheters inserted which were used for blood sampling.
The studies were conducted in an animal room which was illuminated to give a cycle of approximately 12 hours light and 12 hours darkness. The animals were housed individually. The animals had free access to domestic quality drinking water during the study, and no food restrictions applied for PK studies. The animals were weighed on arrival and on the days of dosing.
In the present studies the test substances were administered intravenously in approximately 5 nmol/kg dose. The animals received a single intravenous injection in one central venous catheter and blood sampling was performed from the other catheter, where possible. Each test substance was given to typically three but in some cases two or four animals.
A full plasma concentration-time profile, employing 12-16 sampling points, was obtained from each animal. In example blood samples were collected according to the following schedule:
After Intravenous Administration:
Pre-dose (0), 0.5, 1, 2, 4, 6, 8, 12, 24, 48, 72, 96, 120, 168 and 240 hours after injection. In some cases also additional blood samples up to 288 hours post injection were taken.
At each sampling time, 0.5 to 2 ml of blood was drawn from each animal. The blood samples were taken via the central venous catheter.
The 0.8 mL blood samples were collected into EDTA test tubes (8 mM EDTA). Blood samples were kept on ice for max 20 min. before centrifugation. Plasma was separated using centrifugation (i.e. at 4° C., 10 min., 2000G) and was immediately transferred to Micronic tubes on dry ice. Approximately 200 μl plasma was transferred to each Micronic tube. The plasma was stored at −20° C. until assayed. The plasma samples were assayed for the content of compound using LCMS.
The plasma concentration-time profiles were analysed by a non-compartmental pharmacokinetic analysis (NCA) using Phoenix WinNonlin 6.3 (Pharsight Inc., Mountain View, Calif., USA). NCA was performed using the individual plasma concentration-time profiles from each animal. T½ is the terminal half-life=In2/λz and was determined from λz, the first order rate constant associated with the terminal (log-linear) portion of the curve, estimated by linear regression of time vs. log concentration.
MS-Method for Amylin and Mimylin Quantification
40 μl plasma is diluted with 120 μl 66.67% EtOH+1% HCOOH and mixed. Centrifuged for 20 min. at 13000 rpm, 4° C. The supernatant is analyzed by an LC-MS method on a Sciex API 3000 and quantitated with a standard made up in plasma

Row | SMILES | Solubility ([1]; pH 3.0) | Solubility ([1]; pH 4.0) | solubility at 18 h ([1]; pH 5.0) | Solubility ([1]; pH 6.0) | Solubility ([1]; pH 6.5) | Solubility ([1]; pH 7.0) | Solubility ([1]; pH 7.5) | Solubility ([1]; pH 8.0) | IC50 (rat calcitonin receptor) | PK mini pig iv T½ [2] | Solubility ([1]; pH 5.0)
1 | CC(C)C[C@H](NC(=O)CNC(=O)[C@H](CO)NC(=O)[C@H](C)NC(=O)CC[C@H](NC(=O)CCCCCCCCCCCCCCCCC(=O)O)C(=O)O)C(=O)N[C@@H](CO)C(=O)N[C@H](C(=O)N[C@@H](C)C(=O)N[C@@H](C)C(=O)N[C@@H](CC(C)C)C(=O)NCC(=O)N[C@@H](CCCNC(=N)N)C(=O)N[C@@H](CC(C)C)C(=O)N[C@@H](CO)C(=O)N[C@@H](CCC(N)=O)C(=O)N[C@@H](CCC(=O)O)C(=O)N[C@@H](CC(C)C)C(=O)N[C@@H](Cc1cnc[nH]1)C(=O)N[C@@H](CCC(=O)O)C(=O)N[C@@H](CC(C)C)C(=O)N[C@@H](CCC(N)=O)C(=O)N[C@H](C(=O)N[C@@H](Cc1ccc(O)cc1)C(=O)N1CCC[C@H]1C(=O)N[C@@H](CCCNC(=N)N)C(=O)N[C@H](C(=O)N[C@@H](CCC(=O)O)C(=O)N[C@H](C(=O)NCC(=O)N[C@@H](CO)C(=O)NCC(=O)N[C@H](C(=O)N[C@@H](Cc1ccc(O)cc1)C(N)=O)[C@@H](C)O)[C@@H](C)O)[C@@H](C)O)[C@@H](C)O)[C@@H](C)O [compound 110, [N-terminal(C18 diacid-gGlu), des1, 4G, 15Q, 21Q, 23Y, 30S, 31G, 32T, 33Y]mimylin] ({C18 diacid-γGlu}-ASGLSTAALGRLSQELHELQTYPRTETGSGTY-NH2) | ≧200 μM | ≧200 μM | 149 µM (≈ 569 µg/mL) | ≧200 μM | ≧200 μM | ≧200 μM | ≧200 μM | ≧200 μM | 0.013 nM | 32 h | 
2 | CC(C)C[C@H](NC(=O)[C@H](C)NC(=O)[C@H](C)NC(=O)[C@@H](NC(=O)[C@H](CO)NC(=O)[C@H](CC(C)C)NC(=O)[C@H](CCC(=O)O)NC(=O)[C@H](CO)NC(=O)[C@H](C)NC(=O)[C@H](CCC(=O)O)NC(=O)CCCCCCCCCCCCCCCCCCC(=O)O)[C@@H](C)O)C(=O)NCC(=O)N[C@@H](CCCNC(=N)N)C(=O)N[C@@H](CC(C)C)C(=O)N[C@@H](CO)C(=O)N[C@@H](C)C(=O)N[C@@H](CCC(=O)O)C(=O)N[C@@H](CC(C)C)C(=O)N[C@@H](Cc1cnc[nH]1)C(=O)N[C@@H](CCC(=O)O)C(=O)N[C@@H](CC(C)C)C(=O)N[C@@H](C)C(=O)N[C@H](C(=O)N[C@@H](CC(C)C)C(=O)N1CCC[C@H]1C(=O)N[C@@H](CCCNC(=N)N)C(=O)N[C@H](C(=O)N[C@@H](CCC(=O)O)C(=O)N[C@H](C(=O)NCC(=O)N[C@@H](CO)C(=O)NCC(=O)N[C@@H](CO)C(=O)N1CCC[C@H]1C(N)=O)[C@@H](C)O)[C@@H](C)O)[C@@H](C)O [compound 22, [N-terminal(C20 diacid), 30S, 31G]mimylin] ({C20 diacid}-EASELSTAALGRLSAELHELATLPRTETGSGSP-NH2) | ≧200 μM | ≧200 μM |  | ≧200 μM | ≧200 μM | ≧200 μM | ≧200 μM | ≧200 μM |  | 108 h | ≧200 μM
3 | CC(C)C[C@H](NC(=O)[C@H](C)NC(=O)[C@H](C)NC(=O)[C@@H](NC(=O)[C@H](CO)NC(=O)[C@H](CC(C)C)NC(=O)[C@H](CCC(=O)O)NC(=O)[C@H](CO)NC(=O)[C@H](C)NC(=O)CC[C@H](NC(=O)CCCCCCCCCCCCCCCCCCC(=O)O)C(=O)O)[C@@H](C)O)C(=O)NCC(=O)N[C@@H](CCCNC(=N)N)C(=O)N[C@@H](CC(C)C)C(=O)N[C@@H](CO)C(=O)N[C@@H](C)C(=O)N[C@@H](CCC(=O)O)C(=O)N[C@@H](CC(C)C)C(=O)N[C@@H](Cc1cnc[nH]1)C(=O)N[C@@H](CCC(=O)O)C(=O)N[C@@H](CC(C)C)C(=O)N[C@@H](C)C(=O)N[C@H](C(=O)N[C@@H](Cc1ccc(O)cc1)C(=O)N1CCC[C@H]1C(=O)N[C@@H](CCCNC(=N)N)C(=O)N[C@H](C(=O)N[C@@H](CCC(=O)O)C(=O)N[C@H](C(=O)NCC(=O)N[C@@H](CO)C(=O)NCC(=O)N[C@@H](CO)C(=O)N1CCC[C@H]1C(N)=O)[C@@H](C)O)[C@@H](C)O)[C@@H](C)O [compound 56, [N-terminal(C20 diacid-gGlu), des1, 23Y, 30S, 31G]mimylin] ({C20 diacid-γGlu}-ASELSTAALGRLSAELHELATYPRTETGSGSP-NH2) | ≧200 μM | ≧200 μM |  | ≧200 μM | ≧200 μM | ≧200 μM | ≧200 μM | ≧200 μM | 0.202 nM | 88 h | ≧200 μM
4 | CC(C)C[C@H](NC(=O)[C@H](C)NC(=O)[C@H](C)NC(=O)[C@@H](NC(=O)[C@H](CO)NC(=O)[C@H](CC(C)C)NC(=O)[C@H](CCC(=O)O)NC(=O)[C@H](CO)NC(=O)[C@H](C)NC(=O)CC[C@H](NC(=O)CCCCCCCCCCCCCCCCCCC(=O)O)C(=O)O)[C@@H](C)O)C(=O)NCC(=O)N[C@@H](CCCNC(=N)N)C(=O)N[C@@H](CC(C)C)C(=O)N[C@@H](CO)C(=O)N[C@@H](C)C(=O)N[C@@H](CCC(=O)O)C(=O)N[C@@H](CC(C)C)C(=O)N[C@@H](Cc1cnc[nH]1)C(=O)N[C@@H](CCC(=O)O)C(=O)N[C@@H](CC(C)C)C(=O)N[C@@H](C)C(=O)N[C@H](C(=O)N[C@@H](CC(C)C)C(=O)N1CCC[C@H]1C(=O)N[C@@H](CCCNC(=N)N)C(=O)N[C@H](C(=O)N[C@@H](CCC(=O)O)C(=O)N[C@H](C(=O)NCC(=O)N[C@@H](CO)C(=O)NCC(=O)N[C@@H](CO)C(=O)N1CCC[C@H]1C(N)=O)[C@@H](C)O)[C@@H](C)O)[C@@H](C)O [Ex. #40, [N-terminal(C20 diacid-gGlu), des1, 30S, 31G]mimylin] ({C20 diacid-γGlu}-ASELSTAALGRLSAELHELATLPRTETGSGSP-NH2) | ≧200 μM | ≧200 μM |  | ≧200 μM | ≧200 μM | ≧200 μM | ≧200 μM | ≧200 μM |  | 171 h | ≧200 μM
